The source of these data is patent publication US20180064755A1, “COMPOSITIONS AND METHODS FOR TREATING DRUG ADDICTION” (priority 2015, published 2018).

For this assay, the system named is codeine addiction. The assay can be described thus: Blind trial, rubidium chloride to treat codeine addiction. The assay is classed as in vivo, human. Here is the method: The trial below was a blind trial with 300 mg of rubidium chloride taken once per day administered in a glass of water in the morning by a person of 90 kg; and a placebo being taken by a person of 66 kg, both of whom were addicted to codeine
The trial was undertaken with the recommendation by doctors not to proceed too quickly and to eat potassium rich foods, especially at night; The most difficult aspect was to stop the craving in the evening—a solution for people who cannot stop the craving at night would be to split the dosage of the 300 mg of Rubidium Chloride and take half in the morning and half late in the afternoon.
The aim of this trial was to stop the craving for codeine with the aid of the compound and use the enhanced energy and stimulation supplied from the compound that was tested to change addiction habits.
The trial was for 300 mg of Rubidium Chloride taken once per day taken in a glass of water in the morning in this blind study and a placebo of powdered sugar taken once per day taken in a glass of water in the morning.

Setting [1] is: 90 kg male, 300 mg once per day, self-report.

Consider `[Cl-].[Rb+]` [rubidium chloride], for which the craving for codeine result (90 kg male addicted to codeine, 300 mg once per day in a glass of water in the morning, self-report) is given as “less craving for the drug than normal even after the first day”. In addition, under setting [1], the “energy and activity during the day” value was “much more energy than before”; the “stimulation from the medication” value was “very, very strong”. The “outcome of codeine addiction” value (90 kg male, 300 mg once per day, two month trial) is “lost the addiction to codeine”.
